From US20050032822A1, “Dithiocarbamate derivatives and their use as antibacterial agents” (priority 2001, published 2005)
≈ marks a conversion by molar mass, not a printed value.

Experiments:
Assay type in all cases: cell-based
Details in all cases: Mueller-Hinton broth
[1] = test system: multiresistent staphylococci (MRSA) strain 134/93; assay: MIC, micro broth dilution, MRSA 134/93
[2] = test system: multiresistent staphylococci (MRSA) strain 994/93; assay: MIC, micro broth dilution, MRSA 994/93
[3] = test system: Mycobacterium smegmatis SG 987; assay: MIC, micro broth dilution, M. smegmatis SG 987
M aureum SB66 = assay: MIC, micro broth dilution, M. aureum SB66
M. vaccae IMET 1010670 = assay: MIC, micro broth dilution, M. vaccae IMET 10670
M. fortuitum B = assay: MIC, micro broth dilution, M. fortuitum B

Row | Molecule | minimal inhibitory concentrations MIC, 134/93 [1] | minimal inhibitory concentrations MIC, 994/93 [2] | minimal inhibitory concentrations MIC, SG 987 [3] | minimal inhibitory concentrations MIC, SB 66 (M aureum SB66) | minimal inhibitory concentrations MIC, 10670 (M. vaccae IMET 1010670) | minimal inhibitory concentrations MIC, M. fort. (M. fortuitum B)
1 | CN(C)c1ncnc(SC(=S)N2CCCC2)c1[N+](=O)[O-] [Subst. Nr. 13, 4-dimethylamino-6-tetramethylenedithiocarbamoyl-5-nitropyrimidine] | 3.12 µg/mL (≈ 9.96 µM) | 1.56 µg/mL (≈ 4.98 µM) | 3.12 µg/mL (≈ 9.96 µM) | 3.12 µg/mL (≈ 9.96 µM) | 1.56 µg/mL (≈ 4.98 µM) | 1.56 µg/mL (≈ 4.98 µM)
2 | CCN(CC)C(=S)Sc1ncnc(NC2CC2)c1[N+](=O)[O-] [Subst. Nr. 2, 4-cyclopropylamino-6-diethyldithiocarbamoyl-5-nitropyrimidine] | 1.56 µg/mL (≈ 4.76 µM) | 3.12 µg/mL (≈ 9.53 µM) | 6.25 µg/mL (≈ 19.1 µM) | 12.5 µg/mL (≈ 38.2 µM) | 3.12 µg/mL (≈ 9.53 µM) | 6.25 µg/mL (≈ 19.1 µM)
3 | O=[N+]([O-])c1cnc(SC(=S)N2CCCC2)c([N+](=O)[O-])c1 [Subst. Nr. 18, 3,5-dinitro-2-tetramethylenedithiocarbamoylpyridine] | 1.56 µg/mL (≈ 4.96 µM) | 12.5 µg/mL (≈ 39.8 µM) | 6.25 µg/mL (≈ 19.9 µM) | 3.12 µg/mL (≈ 9.93 µM) | 3.12 µg/mL (≈ 9.93 µM) | 3.12 µg/mL (≈ 9.93 µM)
4 | CN(C)C(=S)Sc1ncnc(N(C)C)c1[N+](=O)[O-] [Subst. Nr. 8, 4-dimethylamino-6-dimethyldithiocarbamoyl-5-nitropyrimidine] | 3.12 µg/mL (≈ 10.9 µM) | 6.52 µg/mL (≈ 22.7 µM) | 12.5 µg/mL (≈ 43.5 µM) | 6.25 µg/mL (≈ 21.7 µM) | 3.12 µg/mL (≈ 10.9 µM) | 12.5 µg/mL (≈ 43.5 µM)
5 | NC(=O)c1cc([N+](=O)[O-])cc([N+](=O)[O-])c1SC(=S)N1CCCCCC1 [Subst. Nr. 16, 3,5-dinitro-2-hexamethylenedithiocarbamoylbenzamide] | 6.25 µg/mL (≈ 16.3 µM) | 12.5 µg/mL (≈ 32.5 µM) | 6.25 µg/mL (≈ 16.3 µM) | 6.25 µg/mL (≈ 16.3 µM) | 0.1 µg/mL (≈ 0.26 µM) | 0.8 µg/mL (≈ 2.08 µM)
6 | CCCOc1ncnc(SC(=S)N(C)C)c1[N+](=O)[O-] [Subst. Nr. 11, 4-propoxy-6-dimethyldithiocarbamoyl-5-nitropyrimidine] | 0.8 µg/mL (≈ 2.65 µM) | 0.8 µg/mL (≈ 2.65 µM) | 6.25 µg/mL (≈ 20.7 µM) | 1.56 µg/mL (≈ 5.16 µM) | 0.8 µg/mL (≈ 2.65 µM) | 1.56 µg/mL (≈ 5.16 µM)
7 | 4-isopropylamino-6-diethyldithiocarbamoyl-5-nitropyrimidine [Subst. Nr. 1] | 3.12 µg/mL | 25 µg/mL | 12.5 µg/mL | 25 µg/mL | 3.12 µg/mL | 25 µg/mL
8 | CCN(CC)C(=S)Sc1c(C#N)cc([N+](=O)[O-])cc1[N+](=O)[O-] [Subst. Nr. 3, 3,5-dinitro-2-diethyldithiocarbamoylbenzonitril] | 3.12 µg/mL (≈ 9.17 µM) | 6.25 µg/mL (≈ 18.4 µM) | 12.5 µg/mL (≈ 36.7 µM) | 12.5 µg/mL (≈ 36.7 µM) | 3.12 µg/mL (≈ 9.17 µM) | 6.25 µg/mL (≈ 18.4 µM)
9 | CNc1ncnc(SC(=S)N(C)C)c1[N+](=O)[O-] [Subst. Nr. 7, 4-methylamino-6-dimethyldithiocarbamoyl-5-nitropyrimidine] | 1.56 µg/mL (≈ 5.71 µM) | 3.12 µg/mL (≈ 11.4 µM) | 12.5 µg/mL (≈ 45.7 µM) | 6.25 µg/mL (≈ 22.9 µM) | 3.12 µg/mL (≈ 11.4 µM) | 6.25 µg/mL (≈ 22.9 µM)
10 | NC(=O)c1cc([N+](=O)[O-])cc([N+](=O)[O-])c1SC(=S)N1CCCC1 [Subst. Nr. 17, 3,5-dinitro-2-tetramethylenedithiocarbamoylbenzamide] | 25 µg/mL (≈ 70.1 µM) | 12.5 µg/mL (≈ 35.1 µM) | 50 µg/mL (≈ 140 µM) | 6.25 µg/mL (≈ 17.5 µM) | 0.4 µg/mL (≈ 1.12 µM) | 6.25 µg/mL (≈ 17.5 µM)
11 | COc1ncnc(SC(=S)N2CCCC2)c1[N+](=O)[O-] [Subst. Nr. 15, 4-methoxy-6-tetramethylenedithiocarbamoyl-5-nitropyrimidine] | 3.12 µg/mL (≈ 10.4 µM) | 3.12 µg/mL (≈ 10.4 µM) | 3.12 µg/mL (≈ 10.4 µM) | 1.56 µg/mL (≈ 5.19 µM) | 0.8 µg/mL (≈ 2.66 µM) | 1.56 µg/mL (≈ 5.19 µM)
12 | COc1ncnc(SC(=S)N(C)C)c1[N+](=O)[O-] [Subst. Nr. 14, 4-methoxy-6-dimethyldithiocarbamoyl-5-nitropyrimidine] | 6.25 µg/mL (≈ 22.8 µM) | 3.12 µg/mL (≈ 11.4 µM) | 3.12 µg/mL (≈ 11.4 µM) | 0.8 µg/mL (≈ 2.92 µM) | 3.12 µg/mL (≈ 11.4 µM) | 0.8 µg/mL (≈ 2.92 µM)
13 | CN(C)C(=S)Sc1c(C#N)cc([N+](=O)[O-])cc1[N+](=O)[O-] [Subst. Nr. 9, 3,5-dinitro-2-dimethyldithiocarbamoylbenzonitrile] | 0.4 µg/mL (≈ 1.28 µM) | 0.4 µg/mL (≈ 1.28 µM) | 3.12 µg/mL (≈ 9.99 µM) | 1.56 µg/mL (≈ 4.99 µM) | 3.12 µg/mL (≈ 9.99 µM) | 6.25 µg/mL (≈ 20 µM)
14 | CCOc1nc(C)nc(SC(=S)N2CCCC2)c1[N+](=O)[O-] [Subst. Nr. 10, 4-ethoxy-2-methyl-6-tetramethylenedithiocarbamoyl-5-nitropyrimidine] | 3.12 µg/mL (≈ 9.5 µM) | 0.8 µg/mL (≈ 2.44 µM) | 12.5 µg/mL (≈ 38.1 µM) | 25 µg/mL (≈ 76.1 µM) | 12.5 µg/mL (≈ 38.1 µM) | 50 µg/mL (≈ 152 µM)
15 | CNc1ncnc(SC(=S)N2CCCC2)c1[N+](=O)[O-] [Subst. Nr. 12, 4-methylamino-6-tetramethylenedithiocarbamoyl-5-nitropyrimidine] |  |  | 3.12 µg/mL (≈ 10.4 µM) | 1.56 µg/mL (≈ 5.21 µM) | 0.8 µg/mL (≈ 2.67 µM) | 0.8 µg/mL (≈ 2.67 µM)
16 | CCN(CC)C(=S)Sc1ncnc(NC)c1[N+](=O)[O-] [Subst. Nr. 4, 4-methylamino-6-diethyldithiocarbamoyl-5-nitropyrimidine] | 0.78 µg/mL (≈ 2.59 µM) | 1.56 µg/mL (≈ 5.18 µM) | 6.25 µg/mL (≈ 20.7 µM) | 6.24 µg/mL (≈ 20.7 µM) | 1.56 µg/mL (≈ 5.18 µM) | 6.25 µg/mL (≈ 20.7 µM)
17 | CCOc1nc(C)nc(SC(=S)N(CC)CC)c1[N+](=O)[O-] [Subst. Nr. 6, 4-ethoxy-2-methyl-6-diethyldithiocarbamoyl-5-nitropyrimidine] | 3.12 µg/mL (≈ 9.44 µM) | 3.12 µg/mL (≈ 9.44 µM) | 12.5 µg/mL (≈ 37.8 µM) | 12.5 µg/mL (≈ 37.8 µM) | 3.12 µg/mL (≈ 9.44 µM) | 12.5 µg/mL (≈ 37.8 µM)
18 | CCN(CC)C(=S)Sc1ncnc(N(C)O)c1[N+](=O)[O-] [Subst. Nr. 5, 4-methylhydroxyamino-6-diethyldithiocarbamoyl-5-nitropyrimidine] | 1.56 µg/mL (≈ 4.91 µM) | 3.12 µg/mL (≈ 9.83 µM) | 6.25 µg/mL (≈ 19.7 µM) | 12.5 µg/mL (≈ 39.4 µM) | 3.12 µg/mL (≈ 9.83 µM) | 6.25 µg/mL (≈ 19.7 µM)
